According to patent US8017135B1, “Lipid-drug conjugates for local therapy of eye diseases” (The Regents of the University of California, priority 2003, dated 2011):
Where “and” joins values, the source holds several entries; their conditions need not be identical. Identical values can stand only once. Entries after “also recorded” stand apart in the source; their conditions may differ.

How the values were obtained:
HSV-1 [1] = assay: HSV-1 rabbit retinitis treatment study; type: in vivo; settings: intravitreal drug after induction of retinitis; for thickness of the retina (histology): 5% dextrose eyes 46 μm, P<0.05
Method: (§1) For the pharmacokinetic studies, the highest non toxic dose from the results of the toxicity studies, 100 μg/eye, was intravitreally injected into 24 eyes of 16 rabbits, and the remaining 8 eyes were injected with the same volume of 5% dextrose as control. Two animals, 3 eyes with drug and 1 eye with 5% dextrose, were used at each time point. The time points used were post-injections on day 1, day 3, week 1, week 2, week 3, week 5, week 8, and week 10. After animal sacrifice, globes were enucleated and kept on ice before freezing and dissecting. The globes were then submerged in −40 C.° 2-methylbutane in a beaker sitting in a dry ice ethanol bath for 30 seconds. The frozen globe was cut into two halves through the optic nerve and further dissected under a surgical microscope to separate the vitreous and retina. These different tissues from the same eyes were separately stored in the pre-weighed and pre-labeled glass vials. The vials were kept in −70 C for HPLC analysis. 3. HSV-1 rabbit retinitis treatment study of HDP-cCDV: For the retinitis intervention study, 72 rabbits were used, including 14 rabbits for the treatment study and 58 for the pretreatment study. Only the right eye of each rabbit was used. Ophthalmoscopic retinitis grading was performed using a previously reported method with a standardized grading scheme.^7 For the treatment study, the right eyes of 14 rabbits were intravitreally injected with 0.06 mL of a 5×10^−5 dilution of 10^−7.6 mean tissue culture infective dose (TCID 50)/mL HSV-1. When retinitis developed and reached grade 1 (earliest detected retinitis grade: 1 or 2), 5 infected eyes received 100 micrograms of HDP-cCDV in 0.1 mL 5% dextrose, 4 infected eyes received an equivalent dose of free CDV, and the other 5 infected eyes received 5% dextrose. For the pretreatment study, 100 μg/eye was tested. 58 rabbits were divided into four groups: the 21 day, 42 day, 68 day, and 98 day groups. 15 rabbits were used for each time point of the pretreatment study (except 13 rabbits were used for the 98 day time point). At each time point 5 rabbits received 100 micrograms (in 0.1 ml 5% dextrose) of HDP-cCDV, 5 rabbits received an equivalent dose of CDV, and 5 rabbits received 5% dextrose (for the 98 day pre-treatment only 3 rabbits were used for HDP-cCDV). The HSV-1 virus dose, injection method, and clinical retinitis grading were done as previously described.^2,7 Rabbits were killed 2 weeks after development of retinitis. Retinitis was graded on day 3, 5, 7, 9, 11, 14. Rabbits without retinitis 3 or 4 weeks after HSV-1 inoculation were sacrificed.
4. Histologic evaluation of retinal damage and choroidal inflammation for the rabbit eyes in the treatment group. […] Thickness was measured with a reticule installed in the eyepiece of the microscope. […]

HSV-1 [2] = assay: HSV-1 rabbit retinitis pretreatment study; type: in vivo; settings: for rabbits that developed retinitis: 3-week pretreatment, 100 μg/eye or equivalent dose
Method: as §1
For the 3-week pretreatment study, all five rabbits that received intravitreal injection of 5% dextrose developed typical retinitis. In contrast, none of the rabbits that received the intravitreal injection of HDP-cCDV or CDV developed retinitis (Table 1). For the 47-day pretreatment, at day 7 after virus inoculation all control eyes developed retinitis with a median grade of 4. […] In contrast, out of 5 rabbits that received HDP-cCDV pretreatment, only 2 developed grade 2 retinitis. There is a significant difference in retinitis scores between HDP-cCDV pretreated eyes and CDV pretreated eyes or control eyes (p<0.05, Nonparametric Tukey-type tests). […] The other two groups (10 eyes) with dextrose or CDV pretreatment all had grade 4 retinitis. The difference in retinitis scores among the three groups was very significant (P=0.0046, Kruskal-Wallis Tests) (Table 1). For the 100-day pretreatment study, one of four rabbits in the HDP-cCDV pretreated group died before virus inoculation. […] The HDP-cCDV pretreated group had lower retinitis scores than the retinitis scores in the dextrose pretreated group (P<0.05, Nonparametric Tukey-type tests).

[3] = literature comparison; cited from earlier work
HSV-1 [4] = settings: single intravitreal injection; cited from earlier work
laser induced rat CNV = assay: Prophylactic treatment of laser induced rat CNV (fluorescein angiograph); type: in vivo
Description: The retina was normal elsewhere.
Ara-G has been used as an antiproliferative agent to treat human leukemia and lymphoma.^11,12 Ara-G can cause apoptosis of fast growing cells by incorporating into the cell's DNA to inhibit the proliferation.^13 Normal cells in the retina are differentiated cell populations and are not sensitive to Ara-G. In contrast, abnormal proliferating cells in proliferative vitreoretinopathy experience vigorous DNA synthesis and are sensitive to Ara-G. The lipid prodrug of Ara-G was chosen to be useful to treat proliferative vitreoretinopathy or other intraocular proliferating disorders. […] No intraocular drug toxicity was observed except for the local retina contact induced retinal toxicity from the high dose injections. It was hypothesized that the local retinal toxicity could be eliminated by using small crystalline particles, especially when used in a human eye with a much larger vitreous volume than rabbit (4 ml in human eye versus 1.4 ml in rabbit eye). To quickly gather the therapeutic data of this new compound on proliferation, 3 μg of HDP-P-Ara G (equivalent to 75 μg in the rabbit eye [(25+125)/2]) was injected into the right eye of each rat 3 days before induction of CNV by laser. The drug led to a 39% reduction of leaking laser burns in this CNV rat model (39% versus 66%, p=0.009). […] HDP-P-Ara G could be useful for prevention or treatment of the devastating sight-threatening eye disease, age related macular degeneration.

[5] = HDP-P-Ara G intravitreal toxicity
[6] = previously determined; cited from earlier work
[7] = Laser light scattering particle size analysis; type: physicochemical; settings: dry powder, laser diffraction
Method: Unmodified HDP-P-GCV and microfluidized HDP-P-GCV were subjected to laser light scattering particle size analysis at Cirrus Pharmaceuticals, Inc., Durham, N.C. Measurements were performed using a HELOS laser diffraction instrument (Sympatec, Lawrenceville, N.J.), equipped with a R3 lens (0.5 to 175 microns).
For each measurement, approximately 100 mg of dry sample was dispersed at a feed rate of 75% using the VIBRI and RODOS attachments set at a main pressure of 4.0 bar and aventury pressure of 100 mbar. The triggering conditions were set to start measurement when channel 25 e 1% and stop when channel 25 d 0.5%. Data were analyzed using the Fraunhoffer method by mean of the WINDOX 3.2 release 4 software. HDP-cCDV: cCDV was prepared from CDV as described previously^3 except that the compound was isolated as the dicyclohexyl-morpholinocarboxamidine salt. The scheme of the synthesis is illustrated in FIG. 1. The purity (greater than 98%) of these compounds used in this study was confirmed by thin layer chromatography, nuclear magnetic resonance spectroscopy, and mass spectroscopy as reported previously.^4,5
An aqueous slurry of HDP-P-GCV was subjected to five consecutive cycles of microfluidization. […] Finally, an untreated formulation of HDP-cCDV powder (Panel C) was also analyzed.

[8] = Intravitreal toxicity of HDP-cCDV; type: in vivo, rabbit
Method: All procedures were adherent to the ARVO Statement for the Use of Animals in Ophthalmic and Vision Research Intravitreal pharmacokinetics of small particle formulation of HDP-P-GCV: Three rabbits received 8.85 μmoles of the drug in their right eyes and 2.8 μmoles in the left eye. 2.8 μmole was previously determined to be non toxic.^2 Vitreous sampling was performed on both eyes of each rabbit at post injection week 1, week 2, week 3, week 5, week 8, week 12, and week 15. 50 to 100 μl of vitreous fluid was aspirated and placed in a pre-weighed vial for HPLC analysis of HDP-P-GCV levels as described before. 2. Intravitreal toxicity and pharmacokinetics of HDP-cCDV: For toxicity studies, five doses (10 μg or 0.018 μmole, 55 μg or 0.1 μmole, 100 μg or 0.18 μmole, 550 μg or 1.01 μmole, 1000 μg or 1.84 μmole in 50 μl of 5% dextrose) were tested in 8 rabbits, 16 eyes for 8 weeks. One eye of each animal was injected with drug and the fellow eye was injected with 5% dextrose as the control. Before drug injection, baseline IOP and fundus examination were documented. Drug or 5% dextrose was intravitreally injected into vitreous cavity as previously described.^2 After injection, eyes were monitored with a hand held tonometer (Tonopen, Medtronic, Jacksonville, Fla.), slit-lamp, and indirect ophthalmoscope at day 3, week 1, week 2, week 3, week 5, and week 8. […]

[9] = rabbit, in vivo, 100 ug
Method: For the pharmacokinetic studies, the highest non toxic dose from the results of the toxicity studies, 100 μg/eye, was intravitreally injected into 24 eyes of 16 rabbits, and the remaining 8 eyes were injected with the same volume of 5% dextrose as control. Two animals, 3 eyes with drug and 1 eye with 5% dextrose, were used at each time point. The time points used were post-injections on day 1, day 3, week 1, week 2, week 3, week 5, week 8, and week 10. After animal sacrifice, globes were enucleated and kept on ice before freezing and dissecting. The globes were then submerged in −40 C.° 2-methylbutane in a beaker sitting in a dry ice ethanol bath for 30 seconds. The frozen globe was cut into two halves through the optic nerve and further dissected under a surgical microscope to separate the vitreous and retina. These different tissues from the same eyes were separately stored in the pre-weighed and pre-labeled glass vials. The vials were kept in −70 C for HPLC analysis. 3. […] When retinitis developed and reached grade 1 (earliest detected retinitis grade: 1 or 2), 5 infected eyes received 100 micrograms of HDP-cCDV in 0.1 mL 5% dextrose, 4 infected eyes received an equivalent dose of free CDV, and the other 5 infected eyes received 5% dextrose. […]

[10] = 47-day pretreatment, day 7 after virus inoculation
[11] = 68-day pretreatment, day 14 following virus inoculation

SMILES: Nc1ccn(C[C@@H](CO)OCP(=O)(O)O)c(=O)n1 [CDV, cidofovir, reference compound]
- vitreous cloudiness (HSV-1 [1]): noticeably less severe than the control eyes
- thickness of the retina (histology) (HSV-1 [1]): 95 μm
- rabbits that developed retinitis (HSV-1 [2]): none
- median retinitis grade (HSV-1 [2]; [10]): 3
- rabbits that developed retinitis (out of 5) (HSV-1 [2]; [10]): all developed retinitis
- retinitis grade (HSV-1 [2]; [11]): 4
- vitreous half-life [3]: 20 h

SMILES: Nc1nc(O)c2ncn(COC(CO)CO)c2n1 [GCV, ganciclovir, reference compound]
- duration of prevention of HSV-1 viral infection of retina (HSV-1 [4]): less than one-week protection

SMILES: CCCCCCCCCCCCCCCCOCCCOP(=O)(O)OCC1OC(n2cnc3c(=O)[nH]c(N)nc32)C(O)C1O (stereo not shown) [HDP-P-Ara G, 1-O-hexadecyloxypropyl-phospho-arabinofuranosylguanosine]
- retinal toxicity in the rat eyes (laser induced rat CNV; 3 μg intravitreal): did not cause any retinal toxicity
- reduction of CNV formation (leaking laser burns) (laser induced rat CNV; 3 μg intravitreal 3 days before laser, versus control eyes): 39%
- burns actively leaking in treated eyes (laser induced rat CNV; 3 μg intravitreal 3 days before laser, control eyes 66%, p=0.009): 40% and 39%
- pathology study ([5]; 25 μg intravitreal injections): no toxicity
- pathology study ([5]; 125 μg intravitreal injections): localized retinal structural disturbance and proliferation or hypertrophy of retinal pigment epithelium
- ERGs ([5]; all eyes including the ones with local retinal toxicity): normal
- clinical toxicity observation ([5]; high dose (125 μg/eye), where drug depot touched the retina): local retinal toxicity that presented as a local retinal disturbance of fundus pigmentation; also recorded: local retinal depigmentation area
- time drug depot was observable ([5]; low dose (25 μg/eye)): 2 weeks

SMILES: CCCCCCCCCCCCCCCCOCCCOP(=O)(O)OCC(CO)OCn1cnc2c(=O)[nH]c(N)nc21 (stereo not shown) [HDP-P-GCV, Hexadecylpropanediol-3-phospho-ganciclovir]
- duration of prevention of HSV-1 viral infection of retina (HSV-1 [4]): 20 weeks
- non toxic intravitreal dose [6]: 2.8 µmol

SMILES: CCCCCCCCCCCCCCCCOCCCOP1(=O)COC(Cn2ccc(N)nc2=O)CO1 (stereo not shown) [HDP-cCDV, 1-O-hexadecyloxypropyl-cyclic-cidofovir]
- volume median diameter (×50) [7]: 8.9 microns
- toxicity findings ([8]; 550 μg/eye and 1000 μg doses, one eye each): local cataract and mild iritis in two eyes
- highest non-toxic dose ([8]; intravitreal injection, 8 weeks observation): 100 μg/eye
- estimated vitreous half-life [9]: 151 h
- vitreous cloudiness (HSV-1 [1]): noticeably less severe than the control eyes
- thickness of the retina (histology) (HSV-1 [1]): 80 μm
- rabbits that developed retinitis (HSV-1 [2]): none
- rabbits that developed retinitis (out of 5) (HSV-1 [2]; [10]): 2
- retinitis grade of the rabbits that developed retinitis (HSV-1 [2]; [10]): 2
- retinitis outcome (HSV-1 [2]; [11]): only two rabbits developed grade 3 and grade 4 retinitis, the other three rabbits had complete protection
- retinitis outcome (HSV-1 [2]; 100-day pretreatment, three rabbits, day 9): one did not develop retinitis, and the other two had grade 3 retinitis
- duration of pharmacologic effect against HSV-1 infection of the rabbit retina (HSV-1 [2]; single intravitreal pretreatment 100 μg/eye): at least 100 days

SMILES: Nc1ccn(C[C@H]2COP(=O)(O)CO2)c(=O)n1 [cCDV, cyclic cidofovir]
- vitreous half-life [3]: 10 h
